Earlier results in publication PMC8823334 (ACS chemical neuroscience, 2021).

How the values were obtained:
PAR4 [1] = settings: mice, suppression of neuroinflammation in astrocytes
PAR4 [2] = target: T1, PAR4 (Homo sapiens, UniProt Q96RI0)
T1 sequence (Q96RI0 18-385): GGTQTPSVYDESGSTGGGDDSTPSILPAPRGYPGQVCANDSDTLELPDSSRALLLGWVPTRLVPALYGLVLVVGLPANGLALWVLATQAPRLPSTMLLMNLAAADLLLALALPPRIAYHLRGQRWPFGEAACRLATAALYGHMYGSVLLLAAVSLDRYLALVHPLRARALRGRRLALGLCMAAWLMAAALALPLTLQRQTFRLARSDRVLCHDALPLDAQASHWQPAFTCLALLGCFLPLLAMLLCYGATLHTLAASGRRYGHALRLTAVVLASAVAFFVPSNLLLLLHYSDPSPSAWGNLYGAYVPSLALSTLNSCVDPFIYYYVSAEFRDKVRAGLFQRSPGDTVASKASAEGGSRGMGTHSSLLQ

mode of PAR4 inhibition (PAR4 [2]): noncompetitive mode of inhibition
SMILES: COc1cc(OCc2nc(N3CCOCC3)sc2C)c2cc(-c3cn4nc(OC)sc4n3)oc2c1 [Compound 1]
protection against traumatic brain injury (PAR4 [1]): protected against traumatic brain injury (TBI) in mice
